{
  "source": "patent US9693563B2",
  "about": "“Boron-silane polyether complex” (3M INNOVATIVE PROPERTIES COMPANY, priority 2013, dated 2017)",
  "assay": "Electrical conductivity of borax, silane polyether and borax-SPE complex solutions",
  "format": "physicochemical",
  "conditions": "for Conductivity: 25° C., 20 ml solution",
  "description": "Electrical conductivity is an effective quantitative tool to study complex formation in water for the system of a weak acid and a weak base. In the current study, the silane polyether acts as the weak acid (pH around 6) and borax acts as the weak base (pH around 9). The following analyses were carried out at 25° C. using a 20 ml solution of borax or SPE-1. Conductivity was measure at 45 minutes (immediately after complexation). The results are reported in Table 4a in units of microSiemens per centimeter (μS/cm).\nThe electrical conductivity of 0.025 M solutions of borax-SPE complex were prepared at various molar ratios of borax to silane polyether (B:S). The following analyses were carried out at 25° C. using a 20 ml solution. Conductivity was measure at 45 minutes and again after 24 hours to assess the stability of the complex.",
  "data": [
    {"smiles": "O=BOB(O)OB(O)OB=O", "note": "[Borax, borax (Na2B4O7.10H2O)]", "values": [
      {"measurement": "Conductivity", "setting": "0.0005M", "result": 133, "unit": "μS/cm"},
      {"measurement": "Conductivity", "setting": "0.001M", "result": 260, "unit": "μS/cm"},
      {"measurement": "Conductivity", "setting": "0.005M", "result": 853, "unit": "μS/cm"},
      {"measurement": "Conductivity", "setting": "0.01M", "result": 1225, "unit": "μS/cm"},
      {"measurement": "Conductivity", "setting": "0.05M", "result": 4530, "unit": "μS/cm"},
      {"measurement": "Conductivity", "setting": "0.1M", "result": 9000, "unit": "μS/cm"},
      {"measurement": "pH", "setting": "weak acid / weak base in water", "result": "around 9"}
    ]}
  ]
}
